Test results reported in patent US20170038387A1, “METHODS FOR TREATING CHRONIC LYMPHOCYTIC LEUKEMIA AND THE USE OF BIOMARKERS AS A PREDICTOR OF CLINICAL SENSITIVITY TO IMMUNOMODULATORY THERAPIES” (Celgene Corporation, priority 2015, published 2017).

Legend:
primary CLL samples = assay: TMT-tagging and mass-spectrometry profiling of relative protein abundance after compound exposure; assay type: cell-based, human
Text: Data import: Relative abundance (RA) data was imported into the R statistical programming environment v.3.1.2. Proteins with less than one spectral count in any of the three MS runs for each case scenario were filtered out and relative abundance was scale normalized to the same median by using normalizeBetweenArrays( ) function implemented in the limma package for Bioconductor (see Yang et al., Nucleic Acids Research, 30(4), e15 (2002)).
Comparative analysis: RA scores were log 2-transformed to perform direct comparison of compounds exposure versus DMSO control and a paired moderated t-test (see Smyth, Statistical Applications in Genetics and Molecular Biology, 3(1), article 3 (2004)) was performed by using lmfit( ) and eBayes( ) functions form limma package to test differential relative abundance between experimental conditions. For differential analysis across cases, the log-2 fold changes of replicates for two of the case scenarios were considered.
Linear regression analysis: Linear regression was modeled by using lm( ) function from the stats package. This function provided the correlation coefficients as well as the linear fitted model. Data were assessed for outliers detection within the linear model via the Studentized residuals method (implemented in outlierTest( ) function from car package) and deemed significant if their q-values were under a threshold of 0.05 (5%).
The proteins subjected to the analysis were those with more than one spectral count matched in three MS runs representing each case scenario. A total of 6114, 6070, 5982 and 5382 proteins were retained for each case scenario. Differential expression analysis was applied to the high and consistent coverage of 4594 proteins quantified across all case scenarios. FIGS. 2A-2D show distribution of normalized relative abundances for each replicate of the four case scenarios (Cases B1-B4). The standard deviation of each replicate is represented as a stair-plot line at the bottom of the boxplot. FIGS. 3A-3D show heatmaps representing correlations of log 2 fold-changes of protein levels post compound treatment as compared with DMSO across conditions for all case scenarios. Low correlation of log 2 fold-changes at 6 hours may be due to the alteration of a small subset of proteins at an early time point without strong general effects across the proteome. Stronger correlations at 24 hours can be linked to a higher proportion of proteins perturbed reflecting downstream changes upon compound exposure.

[1] = system: samples from CLL patients; assay: in vitro proliferation assays on samples from four groups of CLL patients; assay type: cell-based, human
Text: The samples used in this study were from four groups of CLL patients.

CLL cell lines = assay: Thymidine incorporation assay (cell proliferation); assay type: cell-based
Description: After four days, cells were diluted 1:7 with fresh media, containing the same concentration of treatment compound. Three days later, ^3H-thymidine was added to label proliferating cells for 6-7 hours. Cells were then harvested onto filter plates for counting on a scintillation counter.

[2] = FIG. 5 heatmap, 10 μM, 24 hours, vs DMSO

`Nc1cccc2c1CN(C1CCC(=O)NC1=O)C2=O` (centres unmarked) [lenalidomide, 1-oxo-2-(2,6-dioxopiperidin-3-yl)-4-aminoisoindoline, reference compound] was tested. Which “protein abundance levels of SELL, SNX20 and KLF13 upon exposure” value (primary CLL samples; 10 μM, 24 hours) did it give?
The value was “not affected or slightly increased”.

What about the “GZMB protein expression level upon exposure” value (primary CLL samples; Case B1) of the same compound?
Its value is “increased”.

What about the “level of WIZ (widely-interspaced zinc-finger) upon exposure” value (primary CLL samples; Case B1) of the same compound?
The value was “increased”.

And the “GZMB protein expression level upon exposure” value (primary CLL samples; Case B4)?
Its value is “decreased”.

What about the “levels of Group 4 proteins (6 proteins including IKZF3 and a second IKZF1 isoform) upon exposure” value (primary CLL samples; [2]) of the same compound?
The value was “mild effects”.

And the “protein abundance levels of Group 3 proteins (SMNX20, SELL, KLF13, WIZ, IKZF1, NFKBIE, TCF7 and IRF8) upon exposure” value (primary CLL samples; [2])?
Its value is “do not change or increase”.

What about the “effect on cell proliferation” value ([1]; samples from the fourth group of patients (Case B4)) of the same compound?
Its value is “neither Compound A nor lenalidomide had any effect on cell proliferation”.

What about the “effect on cell proliferation” value ([1]; samples from the third group of patients (Case B3)) of the same compound?
The value was “no effect on cell proliferation”.

And the “responsiveness of cell lines to treatment” value (“responsiveness of cell lines” for short) (CLL cell lines; Bucket #1 (EHEB and I83-E95))?
Its value is “responsive to both compounds”.

What about the “responsiveness of cell lines” value (CLL cell lines; Bucket #2 (Mec2, CII, and CI)) of the same compound?
Its value is “responsive to both compounds”.

And the “responsiveness of cell lines” value (CLL cell lines; Bucket #4 (HG3))?
The value was “not responsive to either Compound A or lenalidomide”.
